{"source": "paper PMC9253107", "about": "“Engineering of ultraID, a compact and hyperactive enzyme for proximity-dependent biotinylation in living cells” (Communications Biology, 2022)", "target": "T1, microID (BioID2 [2-171]); with L41P = ultraID (Aquifex aeolicus, UniProt O66837, R40G/L41P)", "T1 construct": "gene birA; pET22b, E. coli BL21(DE3), IMAC purified", "T1 sequence (O66837 entry or part of it R40G/L41P)": "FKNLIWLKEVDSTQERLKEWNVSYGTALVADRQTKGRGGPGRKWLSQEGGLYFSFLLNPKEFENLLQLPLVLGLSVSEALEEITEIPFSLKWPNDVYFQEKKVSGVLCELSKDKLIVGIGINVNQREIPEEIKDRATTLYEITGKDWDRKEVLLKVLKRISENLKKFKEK", "assay": "ELISA-based biotinylation assay, streptavidin-alkaline phosphatase", "assay_type": "biochemical", "details": "50 µM biotin, 2.5 mM ATP, 5 mM MgCl2, pH 7.5, 37 °C, 10 min; acceptor human serum albumin", "data": [{"smiles": "O=C(O)CCCC[C@@H]1SC[C@@H]2NC(=O)N[C@@H]21", "note": "[biotin]", "values": [{"measurement": "ELISA-based biotinylation assay, streptavidin-alkaline phosphatase", "value": "combined R40G/L41P mutations showed the highest activity of all tested variants"}]}]}
